In patent publication US20100197586A1, “USE OF SECRETIN AND OPTIONALLY URODILATIN AS THERAPEUTIC AGENTS” (priority 2007, published 2010):
Where no end group is shown, it is not given here.

Columns and labels:
HCMV strain AD169 = assay: HCMV plaque assay in MRC-5 cells; conditions: for inhibition of HCMV plaque formation as compared to the virus control experiment: 10 micrograms per ml, MRC-5 cells, 7-10 days
[1] = system: hepatitis B virus (HBV) ayw strain; assay: HBV experimental assay system (HepG2-2.2.15, TaqMan PCR of HBV DNA); assay type: cell-based; conditions: 10 micrograms per ml; HepG2-2.2.15, six days; combination 0.95 mole peptide 1 and 1.05 mole peptide 2
Excerpt: HepG2-2.2.15 is a stable cell line containing the hepatitis B virus (HBV) ayw strain genome (ATCC Cat. No. CRL-11997). Antiviral compounds blocking any late step of viral replication such as transcription, translation, pregenome encapsidation, reverse transcription, particle assembly and release can be identified and characterized using this cell line. In this assay, an active compound will reduce the production of secreted HBV from cells, measured by utilizing real time quantitative PCR (TaqMan) assay to directly and accurately measure HBV DNA copies.
HepG2-2.2.15 cells were plated in 96-well microtiter plates. After 16-24 hours the confluent monolayer of HepG2-2.2.15 cells was washed and the medium was replaced with complete medium containing test peptides—10 micrograms per ml—in duplicate. […] Six days following the initial administration of the peptides, the cell culture supernatants was collected, treated with pronase and DNAse and then used in a real-time quantitative TaqMan PCR assay. The PCR-amplified HBV DNA was detected in real-time by monitoring increases in fluorescence signals that result from the exonucleolytic degradation of a quenched fluorescence probe molecule that hybridizes to the amplified HBV DNA. […] Antiviral activity was calculated from the reduction in HBV DNA levels (% virus control). […]

[2] = system: Tumor Necrosis Factor-α (TNF-α); assay: Th1/Th2 cytokine profiling assay: TNF-α; assay type: cell-based, mouse; conditions: 10 micrograms per ml; Ovalbumin-restimulated spleen cells, 72 hours; combination 0.95 mole peptide 1 and 1.05 mole peptide 2
HUVEC = assay: Endothelial tube formation assay; assay type: cell-based, human; conditions: 10 micrograms per ml, 20 hours, combination peptide 1:peptide 2 1.10 mole:0.90 mole
Excerpt: Positive control was vehicle only.

MRSA = assay: Methicillin Resistant Staphylococcus Aureus (MRSA) assay; conditions: 10 micrograms per ml; 5×10^5 CFU/mL; combination for instance 0.95 mole peptide 1 and 1.05 mole peptide 2
Interleukin-2 (IL-2) = assay: Th1/Th2 cytokine profiling assay: IL-2; assay type: cell-based, mouse; conditions: 10 micrograms per ml, 72 hours
[3] = system: Primary Human endothelial cells (HUVEC); assay: Endothelial cell migration assay; assay type: cell-based; conditions: 10 micrograms per ml, 22 hours
Interleukin-4 (IL-4) = assay: Th1/Th2 cytokine profiling assay: IL-4; assay type: cell-based, mouse; conditions: 10 micrograms per ml, Ovalbumin-restimulated spleen cells, 72 hours
Interferon-γ (IFN-γ) = assay: Th1/Th2 cytokine profiling assay: IFN-γ; assay type: cell-based, mouse; conditions: 10 micrograms per ml; Ovalbumin-restimulated spleen cells, 72 hours; combination 0.95 mole peptide 1 and 1.05 mole peptide 2
HIV-1IIIB = assay: HIV-1 antiviral assay in CEM-SS cells
Interleukin-5 (IL-5) = assay: Th1/Th2 cytokine profiling assay: IL-5; assay type: cell-based, mouse; conditions: 10 micrograms per ml; Ovalbumin-restimulated spleen cells, 72 hours

Row | Compound | inhibition of HBV replication as compared to the virus control infection [1] | change of the production of TNF-alpha in murine spleen cells [2] | inhibition of the tube formation of human endothelial cells (HUVEC) [%] | inhibition of the growth of MRSA (MRSA) [%] | inhibition of HCMV plaque formation as compared to the virus control experiment (HCMV strain AD169) | inhibition of the migration of human endothelial cells [3] [%] | change of the production of IFN-γ in murine spleen cells (Interferon-γ (IFN-γ)) | antiviral activity of positive control compounds (HIV-1) (HIV-1IIIB) | also measured
1 | Nc1nc(O)c2ncn(COC(CO)CO)c2n1 [Ganciclovir, reference compound] |  |  |  |  |  |  |  |  | antiviral activity of positive control compound (HCMV) (HCMV strain AD169; positive control compound): expected levels of antiviral activity
2 | Thr-Ala-Pro-Arg-Ser-Leu-Arg-Arg-Ser-Ser-Cys-Phe-Gly-Gly-Arg-Met-Asp-Arg-Ile-Gly-Ala-Gln-Ser-Gly-Leu-Gly-Cys-Asn-Ser-Phe-Arg-Tyr-OH (TAPRSLRRSSCFGGRMDRIGAQSGLGCNSFRY-OH; ends and bridges not checked) [Peptide 2, Urodilatin] | did not inhibit | did not significantly change | 9 | 100 | did not inhibit | 10 | did not significantly change |  | change of the production of IL-2 in murine spleen cells (Interleukin-2 (IL-2); Ovalbumin-restimulated spleen cells, combination 0.95 mole peptide 1 and 1.05 mole peptide 2): did not significantly change; suppression of the production of IL-4 in murine spleen cells (Interleukin-4 (IL-4)): 30.4%; induction of the production of IL-4 (Interleukin-4 (IL-4); combination 0.95 mole peptide 1 and 1.05 mole peptide 2): 59.7%
3 | Cc1cn([C@H]2C[C@H](N=[N+]=[N-])[C@@H](CO)O2)c(=O)[nH]c1=O [AZT] |  |  |  |  |  |  |  | expected levels of antiviral activity | 
4 | CC(C)(C)NC(=O)[C@@H]1CN(Cc2cccnc2)CCN1C[C@@H](O)C[C@@H](Cc1ccccc1)C(=O)N[C@H]1c2ccccc2C[C@H]1O [indinavir] |  |  |  |  |  |  |  | expected levels of antiviral activity | 
5 | His-Ser-Asp-Gly-Thr-Phe-Thr-Ser-Glu-Leu-Ser-Arg-Leu-Arg-Glu-Gly-Ala-Arg-Leu-Gln-Arg-Leu-Leu-Gln-Gly-Leu-Val-NH2 [Peptide 1] | 27.6% | did not significantly change | 33 | 100 | did not inhibit | 2 | did not significantly change |  | decrease of the production of IL-2 in murine spleen cells (Interleukin-2 (IL-2); Ovalbumin-restimulated spleen cells of Balb/c mice): 77.7%; decrease of the production of IL-5 (Interleukin-5 (IL-5)): 45.8%; change of the production of IL-4 in murine spleen cells (Interleukin-4 (IL-4)): did not significantly change
